Results on 21 molecules are retold here after patent US6893846B2, “Primers for use in detecting beta-lactamases” (priority 1998, dated 2005).

Values after ≈ are worked out from the molar mass of the structure shown. Read-outs that look alike come from different tables or passages of the source. Bounds are passed on as bounds.

Test [1] deals with E. coli HB101 transformant (17 kb plasmid). Particulars: disk diffusion, Tr (17 kb) = transformant E. coli HB101.
Test [2] has as its system K. pneumoniae 225. The test can be described thus: MicroScan Walkaway microdilution susceptibility test. The format is cell-based, Klebsiella pneumoniae. The settings on record: for MicroScan susceptibility result: K. pneumoniae 225; for MIC: Klebsiella pneumoniae, 225, read-out: MicroScan MIC. (In general: In broth dilution the organism is exposed to a series of concentrations in liquid medium.)

Test [3] has as its system E. aerogenes. The test can be described thus: Disk diffusion susceptibility test. The test is classed as cell-based, Enterobacter aerogenes. The settings on record: all the E. aerogenes strains. Here is the method: Antibiotic susceptibilities were determined by standard disk-diffusion (NCCLS Standard M2-A6) and agar-dilution (NCCLS Standard M7-A4) procedures. Disks were obtained from Becton Dickinson Microbiology Systems (Cockeysville, Md.). Disk-diffusion susceptibilities to the following antibiotics were determined, ampicillin; amoxicillin clavulanic acid; aztreonam; cefazolin; cefoxitin; cefuroxime; cefotaxime; ceftriaxone; ceftazidime; cefepime; imipenem; gentamicin; trimethoprim/sulfamethoxazole and ciprofloxacin. […] The following quality control strains were run simultaneously with the test organisms Escherichia coli ATCC 25922, Pseudomonas aeruginosa ATCC 27853, and E. coli ATCC 35218. Throughout this study, results were interpreted using NCCLS criteria for disk diffusion (NCCLS M2-A6) and broth dilution (NCCLS M7-A4).
On the technique in general: A growth-free zone around the sample is the usual read-out of agar diffusion tests.

Test [4] has as its system K. pneumoniae 225. The test can be described thus: NCCLS microdilution susceptibility test. The test is classed as cell-based, Klebsiella pneumoniae.
Test [5] deals with P. mirabilis. The test can be described thus: Agar dilution MIC, South African isolates. The test is classed as cell-based, Proteus mirabilis. Particulars: 4 strains, tzp with tazobactam 4 μg/ml. From the text:
During a period of three months in 1993, […] strains of Klebsiella pneumoniae (13 blood, 5 burn, 7 wound, 11 tracheal isolates), 4 strains of Proteus mirabilis (all wound isolates) and 4 strains of Escherichia coli (1 blood, 1 burn, 2 wound isolates) were collected from patients at the following medical centers in South Africa: Tygerberg Hospital near Cape Town, King Edward VIII Hospital in Durban, Chris Hani Baragwanath Hospital in Soweto and Pretoria Academic Hospital in Pretoria. The strains were provided in response to a request for all strains of Enterobacteriaceae, lacking inducible beta-lactamases, that were intermediate or resistant to cefotaxime or ceftazidime. […] Therefore accurate prevalence data were not obtained.
Antibiotic susceptibility was determined by standard disk diffusion (NCCLS Standard M2-T4, 1994) and agar dilution (NCCLS Standard M7-T2, 1994) procedures. Standard powders of antimicrobial agents were kindly provided by the following companies: piperacillin and tazobactam (Lederle Laboratories, Wayne, N.J.); cefoxitin and imipenem, (Merck, Rathway, N.J.); cefotaxime, (Hoechst-Roussel Pharmaceuticals Inc., Somerville, N.J.); ceftazidime, (Glaxo Group Research Ltd., Greenford, England); aztreonam and cefepime, (Bristol-Myers Squibb, Princeton, N.J.). Disks for agar diffusion were obtained from Becton Dickinson Microbiology Systems (Cockeysville, Md.). For quality control purposes, the following quality control strains were run simultaneously with the test organisms E. coli ATCC 25922, Pseudomonas aeruginosa ATCC 27853, E. coli ATCC 35218, and Staphylococcus aureus ATCC 29213. Throughout this study, results were interpreted using NCCLS criteria for disk diffusion (NCCLS Standard M2-T4, 1994) and broth dilution (NCCLS Standard M7-T2, 1994).

Test [6] has as its system K. pneumoniae. The test can be described thus: Agar dilution MIC, South African isolates. The format is cell-based, Klebsiella pneumoniae. Particulars: tzp with tazobactam 4 μg/ml. From the text: (§1) The strains were provided in response to a request for all strains of Enterobacteriaceae, lacking inducible beta-lactamases, that were intermediate or resistant to cefotaxime or ceftazidime. […]
Background: In agar dilution the substance is mixed into plates at graded concentrations.

Test [7] concerns E. coli. The test can be described thus: Agar dilution MIC, South African isolates. The format is cell-based, Escherichia coli. Particulars: tzp with tazobactam 4 μg/ml.
Source text: as §1

For test [8], the system named is K. pneumoniae 225. The test can be described thus: NCCLS disk diffusion assay. The format is cell-based, Klebsiella pneumoniae. The settings on record: Kleb 225; for Zone Size: disk diffusion.
Test [9] deals with E. coli C600 transconjugant. Particulars: disk diffusion, Tc = transconjugate E. coli C600.
The subject of test [10] is E. aerogenes. The test is classed as cell-based, Enterobacter aerogenes. Here is the method: Antibiotic susceptibilities were determined by standard disk-diffusion (NCCLS Standard M2-A6) and agar-dilution (NCCLS Standard M7-A4) procedures. Disks were obtained from Becton Dickinson Microbiology Systems (Cockeysville, Md.). […] Throughout this study, results were interpreted using NCCLS criteria for disk diffusion (NCCLS M2-A6) and broth dilution (NCCLS M7-A4).

Where [11] appears, read: resistance phenotype Kpn2, 28 strains.
The mark [12] stands for this setting: resistance phenotype Ec2, 1 strain.
Setting [13] is: resistance phenotype Kpn1, 8 strains.
Setting [14] is: resistance phenotype Kpn3 (K. pneumoniae Pit 68), 1 strain.
Where [15] appears, read: resistance phenotype Ec1, 3 strains.

As usually defined, the MIC is the smallest concentration in the dilution series that meets the test's criterion for growth inhibition. Turning to `NCC[C@H](O)C(=O)N[C@@H]1C[C@H](N)[C@@H](O[C@H]2O[C@H](CN)[C@@H](O)[C@H](O)[C@H]2O)[C@H](O)[C@H]1O[C@H]1O[C@H](CO)[C@@H](O)[C@H](N)[C@H]1O` [amikacin], the “Zone Size” value in [1] is listed as 12 mm. Also, in test [2], the MicroScan susceptibility result is on record as “Resistant” and the minimal inhibitory concentration (MIC) was above 32 µg/mL.

For the molecule `CC1(C)S[C@@H]2[C@H](NC(=O)[C@H](N)c3ccccc3)C(=O)N2[C@H]1C(=O)O` [ampicillin], in test [3], the Disk diffusion susceptibility entry was “resistant”. In addition, the “Zone Size” value in test [1] worked out at 7 mm.

Turning to `Cc1nnc(SCC2=C(C(=O)O)N3C(=O)[C@@H](NC(=O)Cn4cnnn4)[C@H]3SC2)s1` [cefazolin], the Disk diffusion susceptibility result in [3] is “resistant”. The same molecule registered an MIC in [4] (Klebsiella pneumoniae, 225) above 64 µg/mL.

Turning to `CO/N=C(\C(=O)N[C@@H]1C(=O)N2C(C(=O)[O-])=C(C[N+]3(C)CCCC3)CS[C@H]12)c1csc(N)n1` [cefepime], it took 1 µg/mL (≈ 2.08 µM) to inhibit growth in test [4] (Klebsiella pneumoniae, 225) (MIC). The MIC range in [5] was 2 µg/mL; in test [6] (setting [11]), 0.5 to 4 µg/mL; in [7] (setting [12]) it was 2 µg/mL.

Consider `C=CC1=C(C(=O)O)N2C(=O)[C@@H](NC(=O)/C(=N\OCC(=O)O)c3csc(N)n3)[C@H]2SC1` [cefixime], for which the minimum inhibitory concentration (MIC) in [4] (Klebsiella pneumoniae, 225) was above 64 µg/mL.

Consider `CO[C@@]1(NC(=O)C2SC(=C(C(N)=O)C(=O)O)S2)C(=O)N2C(C(=O)O)=C(CSc3nnnn3C)CS[C@@H]21` (some centres unmarked) [cefotetan], for which the entries for the “Zone Size” value in test [8], in test [1] and in test [9] were 12 mm, 30 mm and 11 mm, respectively. Also, the MIC in test [2] is 16 µg/mL (≈ 27.8 µM).

`COCC1=C(C(=O)O)N2C(=O)[C@@H](NC(=O)/C(=N\OC)c3csc(N)n3)[C@H]2SC1` [cefpodoxime] came in with an MIC in test [4] (Klebsiella pneumoniae, 225) of 64 µg/mL (≈ 150 µM).

Consider `CO/N=C(\C(=O)N[C@@H]1C(=O)N2C(C(=O)O)=C(COC(N)=O)CS[C@H]12)c1ccco1` [cefuroxime], for which the Disk diffusion susceptibility result in [3] is reported as “resistant”. In test [2], the MicroScan susceptibility result is “Resistant” and the minimum inhibitory concentration (MIC) is above 16 µg/mL.

In turn, `CC(=O)OCC1=C(C(=O)O)N2C(=O)[C@@H](NC(=O)Cc3cccs3)[C@H]2SC1` [cephalothin] gave an MIC in test [4] (Klebsiella pneumoniae, 225) above 64 µg/mL.

`O=C(N[C@H](CO)[C@H](O)c1ccc([N+](=O)[O-])cc1)C(Cl)Cl` [chloramphenicol]: the “Zone Size” value in [8] is recorded as 8 mm; in [1], 22 mm; in [9], 12 mm. Also, the MicroScan susceptibility result in test [2] was “Resistant”. Also, the MIC in [2] is above 16 µg/mL.

On to `O=C(O)c1cn(C2CC2)c2cc(N3CCNCC3)c(F)cc2c1=O` [ciprofloxacin], for which the Disk diffusion susceptibility entry in test [3] is “susceptible”. Moreover, the MIC in [4] (Klebsiella pneumoniae, 225) came out at 0.5 µg/mL (≈ 1.51 µM); in test [2] it was 2 µg/mL (≈ 6.04 µM). The Disk diffusion interpretation result in test [8] is recorded as “susceptible”. Moreover, the “Zone Size” value in test [8] is given as 22 mm; in test [1] it was 31 mm; in test [9], 31 mm.

In [4] (Klebsiella pneumoniae, 225), `C[C@@H](O)[C@H]1C(=O)N2C(C(=O)O)=C(SCCN=CN)C[C@H]12` [imipenem] came in with a minimal inhibitory concentration (MIC) of 1 µg/mL (≈ 3.34 µM). In addition, the results for the “Zone Size” value in [8], in [1] and in test [9] were 22 mm, 33 mm and 23 mm, respectively. For the same molecule, the MIC range in [5] was 0.5 to 1 µg/mL; in test [10] (1 E. aerogenes strain with Bush group 1 and group 2be (SHV-3) enzymes), 0.5 µg/mL (≈ 1.67 µM); in test [10] (1 E. aerogenes strain with Bush group 1 and group 2be (SHV-5) enzymes) it was 1 µg/mL (≈ 3.34 µM); in test [10] (29 E. aerogenes strains with Bush group 1 and group 2be (SHV-4) enzymes), 0.5 µg/mL (≈ 1.67 µM); in test [6] (setting [13]), 0.12 µg/mL; in test [6] (setting [11]), 0.12 to 1 µg/mL. Further, the MIC range in test [6] (setting [14]), in [7] (setting [15]) and in test [7] (setting [12]) was 0.12 µg/mL throughout.

Take `C[C@H]1COc2c(N3CCN(C)CC3)c(F)cc3c(=O)c(C(=O)O)cn1c23` [levofloxacin]: the MIC in [2] worked out at 2 µg/mL (≈ 5.53 µM).

In the case of `C[C@@H](O)[C@H]1C(=O)N2C(C(=O)O)=C(S[C@@H]3CN[C@H](C(=O)N(C)C)C3)[C@H](C)[C@H]12` [meropenem], the MIC in test [4] (Klebsiella pneumoniae, 225) came to 0.06 µg/mL (≈ 0.156 µM).

Take `O=C1CN(/N=C/c2ccc([N+](=O)[O-])o2)C(=O)N1` [nitrofurantoin]: the minimal inhibitory concentration (MIC) in test [2] was above 64 µg/mL.

Consider `CC1COc2c(N3CCN(C)CC3)c(F)cc3c(=O)c(C(=O)O)cn1c23` (centres unmarked) [ofloxacin], for which the MIC in [2] came out at 2 µg/mL (≈ 5.53 µM).

For `CCN1CCN(C(=O)N[C@@H](C(=O)N[C@@H]2C(=O)N3[C@@H]2SC(C)(C)[C@@H]3C(=O)O)c2ccccc2)C(=O)C1=O` [piperacillin], in [4] (Klebsiella pneumoniae, 225), the minimal inhibitory concentration (MIC) was above 64 µg/mL. For the same molecule, the MIC range was 128 µg/mL in test [5], 64 µg/mL in test [6] (setting [14]), above 128 µg/mL in [7] (setting [15]) and above 128 µg/mL in [7] (setting [12]).

With `CC1(C)S[C@@H]2[C@H](NC(=O)[C@H](C(=O)O)c3ccsc3)C(=O)N2[C@H]1C(=O)O` [ticarcillin], the minimal inhibitory concentration (MIC) in test [4] (Klebsiella pneumoniae, 225) is above 64 µg/mL.

As for `NC[C@H]1O[C@H](O[C@H]2[C@H](O)[C@@H](O[C@H]3O[C@H](CO)[C@@H](O)[C@H](N)[C@H]3O)[C@H](N)C[C@@H]2N)[C@H](N)C[C@@H]1O` [tobramycin], in test [2], the MicroScan susceptibility result is “Resistant” and the MIC is above 8 µg/mL.

amoxicillin/clavulanate: the Disk diffusion susceptibility entry in test [3] is “resistant”. For the same molecule, the minimal inhibitory concentration (MIC) in [4] (NCCLS microdilution, Mueller-Hinton broth, K. pneumoniae 225) turned out to be 64 µg/mL.

Regarding piperacillin/tazobactam, the “Zone Size” value came to 15 mm in test [8], 30 mm in test [1] and 14 mm in test [9]. In addition, the MIC range is 0.25 to 0.5 µg/mL in [5]; 2 to 4 µg/mL in [6] (setting [13]); 16 µg/mL in [6] (setting [14]); 1 µg/mL in test [7] (setting [15]); 32 µg/mL in test [7] (setting [12]).
